Reference: patent EP0131315A2, “Nasal preparations comprising anticholinergic quaternary ammonium salts” (ISTITUTO DE ANGELI S.p.A., priority 1983, dated 1985)
Where “and” joins values, the source holds several entries; their conditions need not be identical. Equal values may be shown once. Read-outs that look alike come from different tables or passages of the source.

What was measured:
[1] = system: muscarinic receptor of cerebral cortex; experiment: Displacement of 3H-NMS from the muscarinic receptor (standard curve, Fig. 1); assay type: binding; settings: rat cerebral cortex homogenate, 3H-NMS 3.10^-10M, increasing concentrations
Method: This dose corresponds either to 25µl of saline (4% solution) or 5 mg of a 20% gel introduced into both nasal cavities by means of micropipette. After the administration by any route the animals were transfered into metabolic cages and received 3 ml of water by stomach tube. The urine was collected 6,12 and 24 hours after administration and the excreted drug was determined with the following original method which is based on the binding affinity of the drugs to their pharmacological receptors. […] It follows from this that knowing the affinity of the drugs it is possible to assay the concentration of the drugs in biological fluids. For this a suitable in vitro receptor preparation and a radio ligand that can bind specifically to the receptor and can be displaced by the test compound is needed. In the present invention tritiated N-methyl- scopolamine (^3H-NMS) in a final concentration of 3.10^-10M that occupies 50% of the muscarinic receptors was employed. As in vitro receptor preparation we used a homogenate from rat cerebral cortex diluted 1:3000 in 20 mM HEPES, 100 mM NaCl and 10 mM MgCl2 (pH 7.4). After incubation of ^3H-NMS with the receptor preparation receptor bound ligand was separated from free ligand by centrifugation and the amountof the receptor bound ligand was measured as radioactivity (dpm) in the pellet. […]

[2] = Urinary excretion (bioavailability) after intravenous, oral and nasal administration in the rat; drug in urine determined by muscarinic receptor binding assay; assay type: in vivo, male Sprague-Dawley rats; settings: for amount of the compound found in the urine / dose excreted at 6 h / dose excreted at 24 h / dose excreted at 12 h: 2 mg/rat; for dose excreted at 6 h / dose excreted at 24 h / dose excreted at 12 h / bioavailability: urine, 2 mg; for dose excreted at 6 h: hours 0-6, mean of 10 rats; for dose excreted at 6 h / dose excreted at 24 h / dose excreted at 12 h: read-out: amount of the compound found in the urine; for dose excreted at 12 h: hours 6-12, mean of 10 rats
Method: As a representative drug of this class of compounds N-cyclopropylmethylscopolamine bromide was employed in the method and in the compositions according to the present invention. The bioavailability of this compound after administration by nasal and oral route has been examined and then compared by the following general method. The investigated drug was administered in equal doses by the nasal, oral and intravenous route. 6, 12 and 24 hours after administration the quantitative excretion into the urine for any of the routes of administration was studied. The total amount of the drug excreted during the investigated time intervals was expressed as percentage of the intravenously eliminated amount, considering the latter value as an equivalent for 100% bioavailability.
In detail the following studies have been carried out. For each experiment 10 male Sprague-Dawley rats, weighing 280+ 20g have been used. For the i.v. administration rats fasted for 18 hours were anaesthetized by intraperitoneal sodium pentobarbital solution 2 ml/kg corresponding to 60 mg/kg/rat. A 4% solution of the drug in buffered saline (pH=7.4) was injected into the femoral vein ([…] corresponding to 2 mg of the active ingredient). For the oral administration 18 hours fasted and conscious rats received an 0.2% solution of the drug in saline by means of a stomach tube (1 ml/rat corresponding to 2 mg of the active principle). For the nasal administration the investigated compounds, for example N-cyclopropylmethyl scopolamine bromide, was administered to 18 hours fasted and as above described anaesthetized rats at a dose of 2 mg/rat.
This dose corresponds either to 25µl of saline (4% solution) or 5 mg of a 20% gel introduced into both nasal cavities by means of micropipette. After the administration by any route the animals were transfered into metabolic cages and received 3 ml of water by stomach tube. The urine was collected 6,12 and 24 hours after administration and the excreted drug was determined with the following original method which is based on the binding affinity of the drugs to their pharmacological receptors. […] It follows from this that knowing the affinity of the drugs it is possible to assay the concentration of the drugs in biological fluids. For this a suitable in vitro receptor preparation and a radio ligand that can bind specifically to the receptor and can be displaced by the test compound is needed. In the present invention tritiated N-methyl- scopolamine (^3H-NMS) in a final concentration of 3.10^-10M that occupies 50% of the muscarinic receptors was employed. As in vitro receptor preparation we used a homogenate from rat cerebral cortex diluted 1:3000 in 20 mM HEPES, 100 mM NaCl and 10 mM MgCl2 (pH 7.4). After incubation of ^3H-NMS with the receptor preparation receptor bound ligand was separated from free ligand by centrifugation and the amountof the receptor bound ligand was measured as radioactivity (dpm) in the pellet.

C[N+]1(CC2CC2)C2CC(OC(=O)C(CO)c3ccccc3)CC1C1OC12 (centres unmarked) [N-cyclopropylmethylscopolamine bromide]
ability to displace 3H-NMS from the muscarinic receptor [1]: inhibit the specific binding between ^3H-NMS and receptor in a dose dependent manner | PERCENT URINARY EXCRETION BY OTHER ROUTES RELATIVE TO I.V. ADMINISTRATION ([2]; I.V., hours 0-6, rat (relative to total 0-24 h i.v. excretion)): 88.01% | PERCENT URINARY EXCRETION BY OTHER ROUTES RELATIVE TO I.V. ADMINISTRATION ([2]; I.V., hours 0-24, rat (reference = 100)): 100.00% | PERCENT URINARY EXCRETION BY OTHER ROUTES RELATIVE TO I.V. ADMINISTRATION ([2]; I.V., hours 6-12, rat): 8.45% | PERCENT URINARY EXCRETION BY OTHER ROUTES RELATIVE TO I.V. ADMINISTRATION ([2]; I.V., hours 12-24, rat): 3.54% | PERCENT URINARY EXCRETION BY OTHER ROUTES RELATIVE TO I.V. ADMINISTRATION ([2]; NASAL GEL, hours 0-6, rat): 9.01% | PERCENT URINARY EXCRETION BY OTHER ROUTES RELATIVE TO I.V. ADMINISTRATION ([2]; NASAL GEL, hours 0-24, rat): 22.85% | PERCENT URINARY EXCRETION BY OTHER ROUTES RELATIVE TO I.V. ADMINISTRATION ([2]; NASAL GEL, hours 6-12, rat): 8.90% | PERCENT URINARY EXCRETION BY OTHER ROUTES RELATIVE TO I.V. ADMINISTRATION ([2]; NASAL GEL, hours 12-24, rat): 4.94% | PERCENT URINARY EXCRETION BY OTHER ROUTES RELATIVE TO I.V. ADMINISTRATION ([2]; NASAL SOLUTION, hours 0-6, rat): 21.23% | PERCENT URINARY EXCRETION BY OTHER ROUTES RELATIVE TO I.V. ADMINISTRATION ([2]; NASAL SOLUTION, hours 0-24, rat): 23.00% | PERCENT URINARY EXCRETION BY OTHER ROUTES RELATIVE TO I.V. ADMINISTRATION ([2]; NASAL SOLUTION, hours 6-12, rat): 1.43% | PERCENT URINARY EXCRETION BY OTHER ROUTES RELATIVE TO I.V. ADMINISTRATION ([2]; NASAL SOLUTION, hours 12-24, rat): 0.34% | PERCENT URINARY EXCRETION BY OTHER ROUTES RELATIVE TO I.V. ADMINISTRATION ([2]; OS, hours 0-6, rat): 1.02% | PERCENT URINARY EXCRETION BY OTHER ROUTES RELATIVE TO I.V. ADMINISTRATION ([2]; OS, hours 0-24, rat): 1.40% | PERCENT URINARY EXCRETION BY OTHER ROUTES RELATIVE TO I.V. ADMINISTRATION ([2]; OS, hours 6-12, rat): 0.30% | PERCENT URINARY EXCRETION BY OTHER ROUTES RELATIVE TO I.V. ADMINISTRATION ([2]; OS, hours 12-24, rat): 0.08% | release profile from urinary excretion ([2]; nasal gel, excretion nearly constant 0-6 and 6-12 hours, rat): prolonged release | absorption after nasal administration as compared to the per oral form ([2]; nasal, both by solution and in the form of gel, rat): 16 times | amount of the compound found in the urine ([2]; nasal, gel, hours 0-24, individual rats, 1440 min): 5.26 percentage of the total administered dose and 11.19 percentage of the total administered dose and 5.28 percentage of the total administered dose and 5.19 percentage of the total administered dose and 8.40 percentage of the total administered dose and 6.94 percentage of the total administered dose | amount of the compound found in the urine ([2]; nasal, gel, hours 6-12, individual rats, 720 min): 2.00 percentage of the total administered dose and 4.58 percentage of the total administered dose and 1.63 percentage of the total administered dose and 2.17 percentage of the total administered dose and 3.24 percentage of the total administered dose and 2.90 percentage of the total administered dose and 1.53 percentage of the total administered dose | amount of the compound found in the urine ([2]; nasal, gel, hours 12-24, individual rats, 1440 min): 1.19 percentage of the total administered dose and 1.9 percentage of the total administered dose and 2.0 percentage of the total administered dose and 0.63 percentage of the total administered dose and 2.04 percentage of the total administered dose and 1.18 percentage of the total administered dose | amount of the compound found in the urine ([2]; nasal, solution, hours 0-6, individual rats, 360 min): 4.12 percentage of the total administered dose and 6.25 percentage of the total administered dose and 5.53 percentage of the total administered dose and 8.86 percentage of the total administered dose and 2.93 percentage of the total administered dose and 2.68 percentage of the total administered dose and 4.82 percentage of the total administered dose and 11.42 percentage of the total administered dose and 5.17 percentage of the total administered dose and 4.55 percentage of the total administered dose | amount of the compound found in the urine ([2]; nasal, solution, hours 0-24, individual rats, 1440 min): 4.52 percentage of the total administered dose and 6.59 percentage of the total administered dose and 5.75 percentage of the total administered dose and 9.23 percentage of the total administered dose and 3.17 percentage of the total administered dose and 3.11 percentage of the total administered dose and 5.55 percentage of the total administered dose and 11.88 percentage of the total administered dose and 6.12 percentage of the total administered dose and 5.07 percentage of the total administered dose | amount of the compound found in the urine ([2]; nasal, solution, hours 6-12, individual rats, 720 min): 0.33 percentage of the total administered dose and 0.25 percentage of the total administered dose and 0.13 percentage of the total administered dose and 0.23 percentage of the total administered dose and 0.19 percentage of the total administered dose and 0.39 percentage of the total administered dose and 0.65 percentage of the total administered dose and 0.28 percentage of the total administered dose and 0.86 percentage of the total administered dose and 0.44 percentage of the total administered dose | dose excreted at 6 h ([2]; rat, nasal, gel): 2.39% | dose excreted at 24 h ([2]; rat, nasal, gel, hours 0-24, mean of 10 rats): 6.06% | dose excreted at 12 h ([2]; rat, nasal, gel): 2.36% | dose excreted at 24 h ([2]; rat, nasal, gel, hours 12-24, mean of 10 rats): 1.31% | dose excreted at 6 h ([2]; rat, nasal, solution): 5.63% | dose excreted at 24 h ([2]; rat, nasal, solution, hours 0-24, mean of 10 rats): 6.1% | dose excreted at 12 h ([2]; rat, nasal, solution): 0.38% | dose excreted at 24 h ([2]; rat, nasal, solution, hours 12-24, mean of 10 rats): 0.09% | dose excreted at 6 h ([2]; rat, iv, intravenous): 23.2% | dose excreted at 24 h ([2]; rat, iv, intravenous, hours 0-24, individual rats): 31% | dose excreted at 24 h ([2]; rat, iv, intravenous, hours 0-24, mean of 10 rats): 26.5% | dose excreted at 12 h ([2]; rat, iv, intravenous): 2.24% | dose excreted at 24 h ([2]; rat, iv, intravenous, hours 12-24, mean of 10 rats): 0.94% | dose excreted at 6 h ([2]; rat, po, oral): 0.27% | dose excreted at 24 h ([2]; rat, po, oral, hours 0-24, mean of 10 rats): 0.37% | dose excreted at 12 h ([2]; rat, po, oral): 0.08% | dose excreted at 24 h ([2]; rat, po, oral, hours 12-24, mean of 10 rats): 0.02% | bioavailability ([2]; after oral administration, rat, read-out: bioavailability): 1.4% | bioavailability ([2]; nasal route, both galenic formulations, solution and gel, rat, read-out: absolute bioavailability): 23%
